Measured values as given in patent US9763979B2, “Cardioplegic preparation” (Universitat Bern, priority 2008, dated 2017).

Assay: Experimental and clinical tests of potassium bioavailability
Conditions: in presence of xylitol and/or citric acid
Description: As compared to previous cardioplegic solutions the preparation according to the invention has a higher potassium concentration. […] By increasing thus the initial content of potassium in the cardioplegic solution, the concentration necessary to achieve the cardioplegic effect is guaranteed.

For `[Cl-].[K+]` [Potassium ions, Potassium chloride], the “bioavailability of Potassium ions” value was “reduced bioavailability”.
